Data as given in US10751311B2, “Compositions and methods of using modified release solabegron for lower urinary tract symptoms” (VELICEPT THERAPEUTICS, INC., priority 2014, dated 2020).

Key:
[1] = Absorption of solabegron in regions of the GI tract; assay type: in vivo; conditions: solabegron and pharmaceutical salts thereof
From the text: (§1) For example, some compounds are differentially absorbed in different regions of the GI tract. […] Under these improved conditions, a second release of solabegron and absorption will result. Additionally, methods for the release of solabegron in the distal GI tract based on pH are presented herein.

[2] = women with moderate to severe OAB; cited from earlier work
[3] = pH-dependent solubility of solabegron; assay type: physicochemical
From the text: as §1

[4] = target: T1, beta-3 adrenoceptor (Rattus norvegicus, UniProt P26255); test: Receptor desensitization: CCRC after incubation with the EC90 concentration and PSS washout, EFS-stimulated rat bladder strips; assay type: cell-based
T1 construct: The bladder longitudinal smooth muscle, with the urothelium still attached were mounted in 25 ml organ baths; from tissue; host or cells: isolated bladder longitudinal smooth muscle strips (urothelium attached) from male CD rats
T1 sequence (P26255 whole entry): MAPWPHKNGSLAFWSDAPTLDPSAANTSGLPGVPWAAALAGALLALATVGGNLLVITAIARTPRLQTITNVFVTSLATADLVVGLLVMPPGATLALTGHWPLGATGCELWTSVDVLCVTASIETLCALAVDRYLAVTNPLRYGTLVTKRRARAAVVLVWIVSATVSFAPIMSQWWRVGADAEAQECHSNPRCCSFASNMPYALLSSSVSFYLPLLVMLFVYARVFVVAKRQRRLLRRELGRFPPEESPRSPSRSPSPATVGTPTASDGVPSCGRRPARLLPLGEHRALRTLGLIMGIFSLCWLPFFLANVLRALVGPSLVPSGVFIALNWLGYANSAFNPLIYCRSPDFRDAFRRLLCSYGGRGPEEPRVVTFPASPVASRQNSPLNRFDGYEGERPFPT
Method: (§2) Macroscopically normal bladders obtained from Male CD rats (220-250 g) were used. […] Each bladder was cleaned free of surrounding connective tissue and halved longitudinally. The bladder longitudinal smooth muscle, with the urothelium still attached were mounted in 25 ml organ baths containing physiological saline solution (PSS) (composition: 119.0 mM NaCl, 4.7 mM KCl, 1.2 mM MgSO4, 24.9 mM NaHCO3, 1.2 mM KH2PO4, 2.5 mM CaCl2 and 11.1 mM glucose) supplemented with 1 μM prazosin (α1-adrenoceptor antagonist) and 30 nM ICI118551 (β2-adrenoceptor antagonist), aerated with 95% O2/5% CO2 gas mix, warmed and maintained at approximately 37° C. throughout the experiment. Changes in force production were recorded using transducers. After mounting, the bladder halves were allowed to equilibrate for at least 30 min before they were set to a stable tension of approximately 1.0 g. The tissue was then allowed to equilibrate over at least a 60 min period with washes every 15 min.
In initial experiments the parameters for the EFS were assessed by performing a frequency curve to determine a frequency that would give a response that was approximately 80% of the response seen to 80 mM KCl. Optimal EFS parameters were determined to be: 30 Volts, square pulse of 0.1 ms, train of 4 seconds every 120 seconds, 15 Hz. This frequency was then used to stimulate the tissue for all subsequent experiments. The viability of bladder strips was tested by stimulating the tissue with EFS for minimum of ten minutes.
The bladder muscle strips were incubated with the EC90 determined for each test compound in the pilot studies, for a period of 1 or 3 hr. Following compound incubation, the tissues were washed with PSS for a period of 1, 3 or 6 hr, with washes approximately every 15 min, to remove the drug. At the end of the final wash period the tissues were stimulated with EFS, and left to equilibrate for at least 30 min. A CCRC was then performed in each tissue. Tissue responses were calculated as the mean (SEM) and expressed as percentage of EFS induced tone.
Tissues were incubated with the EC90 concentration of the test compounds for one hr followed by one hr, three hr or six hr of washing with PSS. […] This EFS-induced potentiation of bladder contraction from baseline was not observed with solabegron.
In the next series of experiments, tissues were incubated with the EC90 concentration of the test compounds for three hr followed by either one hr, three hr or six hr of washing with PSS.

[5] = target: T1, beta-3 adrenoceptor; test: Determination of EC90 concentration to inhibit EFS-induced contraction in rat isolated bladder (pilot CCRC); assay type: cell-based; conditions: PSS with 1 μM prazosin and 30 nM ICI118551, EFS 15 Hz
Method: as §2, with “After mounting, the bladder halves were allowed to equilibrate for at least 30 min before they were set to a stable tension of approximately 1.0 g. The tissue was then allowed to equilibrate over at least a 60 min period with washes every 15 min.” left out
In initial experiments the parameters for the EFS were assessed by performing a frequency curve to determine a frequency that would give a response that was approximately 80% of the response seen to 80 mM KCl. Optimal EFS parameters were determined to be: 30 Volts, square pulse of 0.1 ms, train of 4 seconds every 120 seconds, 15 Hz. […]
Pilot studies to determine EC90 concentrations of the test compounds were performed. […] From the data obtained in these experiments, EC90 concentrations of the test compounds were determined for use in subsequent experiments. […]

[6] = three hr incubation with EC90 concentration, one hr of washing

| SMILES | Absorption in the GI tract [1] | Effect on symptoms of overactive bladder [2] | Safety, tolerability, adverse events compared to placebo [2] | Solubility [3] | Response to agonist (CCRC, reduction of EFS-induced tone) versus vehicle-incubated tissue ([4]; one hr incubation with EC90 concentration, one hr of washing) | Response to agonist (CCRC, reduction of EFS-induced tone) versus vehicle-incubated tissue ([4]; one hr incubation with EC90 concentration, three hr of washing, higher concentrations) | Response to agonist (CCRC, reduction of EFS-induced tone) versus vehicle-incubated tissue [4, 6] | Response to agonist (CCRC, reduction of EFS-induced tone) versus vehicle-incubated tissue ([4]; three hr incubation with EC90 concentration, three hr of washing, highest concentrations) | EC90 [5] |
| --- | --- | --- | --- | --- | --- | --- | --- | --- | --- |
| O=C(O)c1cccc(-c2cccc(NCCNC[C@H](O)c3cccc(Cl)c3)c2)c1 [solabegron, 3′-[(2-{[(2R)-2-(3-chlorophenyl)-2-hydroxyethyl]amino}ethyl)amino]biphenyl-3-carboxylic acid] | optimum absorption in the proximal GI tract | significantly reduce the symptoms of overactive bladder | safe, well-tolerated, and does not demonstrate significant differences in adverse events as compared to placebo | pH-dependent solubility | significantly attenuated | significantly attenuated | significantly attenuated | significantly attenuated | 1000 nM |
| C[C@H](Cc1ccc2c(c1)OC(C(=O)[O-])(C(=O)[O-])O2)NC[C@H](O)c1cccc(Cl)c1.[Na+].[Na+] [CL-316,243, reference compound] |  |  |  |  |  |  | significantly attenuated |  | 42 nM |
